One may read the IC50 as the concentration that gives 50% inhibition.

One data set has as its system MDA-MB-231. Put plainly: Cytotoxicity against human MDA-MB-231 cells after 72 hrs by WST1 assay. The class given is functional, cell-based. The conditions noted are these: MDA-MB-231, 72 h.
For data set [1], the system named is MCF7. Put plainly: Cytotoxicity against human MCF7 cells after 72 hrs by WST1 assay. The conditions noted are these: MCF7, 72 h. In kind it is functional, cell-based. (In general: Tetrazolium assays rely on reduction of a dye to a coloured formazan, in cell work by metabolically active cells.)
Another data set relates to A549. Briefly: Cytotoxicity against human A549 cells after 72 hrs by WST1 assay. The conditions noted are these: A549, 72 h. In kind it is functional, cell-based.
A further data set relates to PC-3. Put plainly: Cytotoxicity against human PC3 cells after 72 hrs by WST1 assay. The class given is functional, cell-based. The conditions noted are these: PC-3, 72 h.
For a further data set, the system named is NCI-H460. Put plainly: Cytotoxicity against human H460 cells after 72 hrs by WST1 assay. In kind it is functional, cell-based. The conditions noted are these: NCI-H460, 72 h.
In the next data set the test system is OVCAR-3. Briefly: Cytotoxicity against human OVCAR3 cells after 72 hrs by WST1 assay. The class given is functional, cell-based. Conditions: OVCAR-3, 72 h.
The subject of data set [2] is MCF7. Briefly: Cell cycle arrest in human MCF7 cells assessed as accumulation at G2/M phase at 3 uM after 24 hrs by flow cytometry relative to control. In kind it is functional. (Flow cytometry measures light scatter and fluorescence of single cells or particles in a stream.)
For data set [3], the system named is MCF7. Put plainly: Cell cycle arrest in human MCF7 cells assessed as accumulation at G1 phase at 3 uM after 24 hrs by flow cytometry relative to control. In kind it is functional.
Data set [4] has as its system Mus musculus. Put plainly: Toxicity in SCID mouse assessed as blood analysis at up to 500 mg/kg administered twice week for 7 weeks. In kind it is organism-based. The conditions noted are these: in vivo, 1176 h. Further details: dose 500 mg/kg.
The subject of data set [5] is Mus musculus. Briefly: Toxicity in SCID mouse at up to 500 mg/kg administered twice week for 7 weeks. The class given is organism-based. Further details: dose 500 mg/kg. The conditions noted are these: in vivo, 1176 h.
For data set [6], the system named is Mus musculus. Put plainly: Toxicity in SCID mouse assessed as histopathological examination of liver at up to 500 mg/kg administered twice week for 7 weeks. The class given is organism-based. On the set-up: dose 500 mg/kg. Conditions: in vivo, 1176 h.
Data set [7] has as its system Mus musculus. Put plainly: Toxicity in SCID mouse assessed as histopathological examination of kidney at up to 500 mg/kg administered twice week for 7 weeks. In kind it is organism-based. Further details: dose 500 mg/kg. Conditions: in vivo, 1176 h.
Data set [8] concerns MCF7. Briefly: Cell cycle arrest in human MCF7 cells assessed as accumulation at S phase at 3 uM after 24 hrs by flow cytometry relative to control. The class given is functional.
In data set [9] the test system is Mus musculus. Put plainly: Toxicity in SCID mouse assessed as histopathological examination of spleen at up to 500 mg/kg administered twice week for 7 weeks. The class given is organism-based. Further details: dose 500 mg/kg. The conditions noted are these: in vivo, 1176 h.
For data set [10], the system named is Mus musculus. Put plainly: Toxicity in SCID mouse assessed as histopathological examination of cerebellum-brain at up to 500 mg/kg administered twice week for 7 weeks. The class given is organism-based. On the set-up: dose 500 mg/kg. Conditions: in vivo, 1176 h.

Regarding `COc1ccc(Cn2cnc3c4nc(=O)n(Cc5ccc(F)cc5)c-4ncnc32)cc1`, the IC50 with MDA-MB-231 came to 2.5 µM; in the data set with MCF7 [1], 4 µM; in the data set on A549, 1.6 µM; with PC-3 it was 2.1 µM; in the data set with NCI-H460, 1.5 µM; with OVCAR-3, 9 µM.
For `COc1ccc(Cn2c3nc(-c4ccc([N+](=O)[O-])cc4)nc4c(ncn4Cc4ccc(OC)cc4)c-3nc2=O)cc1`, the IC50 with MDA-MB-231 turned out to be 3.3 µM; in the data set on MCF7 [1] it was 5.7 µM; in the data set on A549 it was 2.7 µM; in the data set with PC-3, 4.3 µM; with NCI-H460 it was 2.5 µM; with OVCAR-3 it was 5.2 µM.
For the compound `COc1ccc(Cn2c3ncnc4c(ncn4Cc4ccc(OC)cc4)c-3nc2=O)cc1`, the Activity is reported as 14.5% in the data set on MCF7 [2]; 79.15% with MCF7 [3]; “Non-toxic” in the data set on Mus musculus [4]; “Non-toxic” in the data set on Mus musculus [5]; “Non-toxic” in the data set with Mus musculus [6]; “Non-toxic” with Mus musculus [7]. Besides, the Activity in the data set on MCF7 [8] was 5.87%; in the data set on Mus musculus [9] it was “Non-toxic”; in the data set with Mus musculus [10], “Non-toxic”. Also, the 50% inhibitory concentration (IC50) in the data set with MDA-MB-231 was 4.01 µM; in the data set with MCF7 [1] it was 7.5 µM; in the data set with A549, 2.5 µM; with PC-3, 4.8 µM; in the data set on NCI-H460, 2.8 µM; in the data set on OVCAR-3 it was 14.5 µM.
On to `COc1ccc(Cn2cnc3c4nc(=O)n(Cc5cccc(OC)c5)c-4ncnc32)cc1`, for which the IC50 in the data set on MDA-MB-231 was determined as 2.6 µM; in the data set with MCF7 [1], 6 µM; in the data set on A549, 1.5 µM; in the data set with PC-3, 2.5 µM; with NCI-H460, 1.6 µM; with OVCAR-3, 5.1 µM.
As for `COc1ccc(Cn2cnc3c4nc(=O)n(Cc5ccccc5)c-4ncnc32)cc1`, the IC50 with MDA-MB-231 stood at 2.3 µM; in the data set on MCF7 [1], 7 µM; in the data set with A549 it was 1.7 µM; in the data set on PC-3, 4.05 µM; in the data set with NCI-H460, 1.8 µM; with OVCAR-3, 5 µM.
